Each structure is given as a SMILES string. “And” between values parts separate entries of the source, which are not always exact repeats. Equal values may be shown once. Read-outs that look alike come from different tables or passages of the source. Where only a bound is given, the exact number is not on record here.

Series [1] has as its target T1, PBRM1 BD (Homo sapiens, UniProt Q86U86).
T1 construct: GST (TEV site) (N); made in house; host or cells: Escherichia coli BL21(DE3)
The experiment in a line: TR-FRET binary and ternary (PROTAC + VCB) affinity, PBRM1 bromodomain. In kind it is binding. The conditions noted are these: individual replicates.

The target of series [2] is T2, VCB: PROTAC: SMARCA2^BD ternary complex (Homo sapiens, UniProt P51531).
T2 construct: P51531-2, residues 1373-1493 with additional N-terminal SM residues; GST (TEV site) (N); His6 (TEV site) (N, cleaved yes); made in house; host or cells: SMARCA2^BD: Escherichia coli BL21(DE3)
The series can be described thus: TR-FRET ternary complex affinity and cooperativity, SMARCA2. The series is classed as binding.

In series [3] the target is SMARCA2 (Homo sapiens, UniProt P51531). The series can be described thus: Imaging-based SMARCA2 protein assay in RKO cells. The series is classed as cell-based. Also noted: endogenous in cells; host or cells: RKO, NCI-H1568, A549, HCT116, LU99, HCC-364, HCT-15, HCC4006, SK-N-AS. The conditions noted are these: individual replicates. As to the method:
1250 cells per well in 60 µl medium were plated in flat bottom, poly-lysin coated 384-well plates (CellCarrier Ultra, Perkin Elmer). The next day, test compounds (10 µl of serial dilutions) and DMSO controls were diluted in DMEM medium such that the final DMSO content was <1% or were added using an ultrasound dispensing system. 4 wells were reserved for a background measurement. […] After aspirating the fixing solution, the cells were washed once with 25 µl PBS. 25 µl of blocking buffer (10% goat serum in PBS) was added and cells were incubated for 30 min, then washed once with PBS. […] Cells were again washed once with PBS. […] The cell layer was then washed once with 25 µl PBS, the wells were filled with 25 µl PBS and the plates were sealed with an adhesive sheet. They were then imaged on the Opera Phoenix (mean intensity in the nucleus). […] EC50 values were computed using a 4-parametric logistic model.

Series [4] has as its target SMARCA4 (Homo sapiens, UniProt P51532). The series can be described thus: SMARCA4 capillary electrophoresis protein assay in RKO cells. The series is classed as cell-based. Also noted: endogenous in cells; host or cells: RKO, HCT116, LU99, HCC-364, HCT-15, HCC4006, SK-N-AS. As for the experimental part:
130,000–200,000 cells were seeded in 24-well plates and incubated until settled down or overnight. Compounds were dissolved in DMSO and added to cells in indicated concentrations using a digital dispenser following an optional media change. Cells were incubated for 4 or 18 h as indicated. For SMARCA2/4 half-life determination, 150,000 or 200,000 cells were seeded in 24-well plates. The next day, 50 µg/ml cycloheximide (Sigma) was added and cells were incubated for 1–24 h. For SMARCA2/4 re-synthesis measurements, 200,000 cells were seeded in 24-well plates. The next day, 100 nM compound 6 was added for 4 h to degrade SMARCA2/4, and a sample was taken as baseline for normalisation. To allow re-synthesis, a VHL binder (compound 32, 25 or 50 µM) was then added for 3 or 24 h. Medium was removed, cells were washed with PBS and lysed with 80 µl Lysis Buffer (MSD Tris Lysis Buffer (#R60TX-2) + Halt Inhibitor Cocktail (100x) + Benzonase 0.5 µL/ml). Samples were frozen at −80 °C and thawed at room temperature before use. Samples were transferred to a V-bottom plate and insoluble debris was pelleted by centrifugation for 5 min at maximum speed. The supernatant was transferred to a fresh plate. Master Mix and Ladder were prepared according to manufacturer’s instructions for 12–230 kDa Wes Separation Module, 8 × 25 capillary cartridges, Protein Simple #SM-W004 with Anti-Rabbit Detection Module for Wes, Peggy Sue or Sally Sue, Protein Simple #DM-001. 4.8 µl lysate were mixed with 1.2 µl Master Mix to achieve a protein concentration of ~0.5 µg/µl. Antibodies were diluted in Antibody Diluent II (SMARCA2 Sigma #HPA029981 RRID:AB_10602406 1:25–100, SMARCA4 Cell Signalling #49360 clone D1Q7F RRID:AB_2728743 1:15–120 or Abcam #ab110641 clone EPNCIR111A RRID:AB_10861578 1:60, GAPDH Abcam #ab9485 RRID:AB_307275 1:250). Wes plates were prepared and run according to manufacturer’s instructions. Proteins were quantified with accompanying Compass Software. SMARCA2/4 protein levels were normalised to GAPDH. […] Where applicable, curves were fitted using a 4-parametric logistic model.

Series [5] deals with NCI-H1568 cells. The series can be described thus: Cell viability assay (CellTiter Glo) in NCI-H1568.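 As to % Viability: percent of DMSO-treated control cells.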 The conditions noted are these: for IC50: CellTiter Glo, individual replicates, read-out: NCI-H1568 (18h) CTG. In kind it is cell-based, human. As to the method: 500–2000 cells were seeded in white, clear bottom 96-well plates (Corning or Perkin Elmer) in 180–200 µl medium per well. The next day, compounds were added using a digital dispenser and a T0 sample was measured for reference. […], and viability (luminescence) was measured using CellTiter Glo or CellTiter Glo 2.0 (Promega) according to manufacturer’s instructions after equilibrating cells and reagents at room temperature and 10–20 min incubation time while shaking.

The mark [6] stands for this setting: TR-FRET competition for SMARCA2BD, without VCB, mean ± SD, read-out: TR-FRET SMARCA2BD EC50.
Where [7] appears, read: binary, PROTAC alone, individual replicates, read-out: SMARCA2 BD EC50.
Where [8] appears, read: 4h, read-out: RKO (4h) SMARCA2 DC50.
Setting [9] is: 18h, read-out: RKO (18h) SMARCA2 DC50.
Where [10] appears, read: PROTAC + VCB, read-out: Ternary PBRM1 BD EC50 (PROTAC + VCB).
Where [11] appears, read: binary, PROTAC alone, read-out: PBRM1 EC50.
[12] abbreviates: Homo sapiens, NCI-H1568, […], read-out: EC50 cell proliferation (CellTiter Glo).

SMARCA2, sequence (P51531 whole entry): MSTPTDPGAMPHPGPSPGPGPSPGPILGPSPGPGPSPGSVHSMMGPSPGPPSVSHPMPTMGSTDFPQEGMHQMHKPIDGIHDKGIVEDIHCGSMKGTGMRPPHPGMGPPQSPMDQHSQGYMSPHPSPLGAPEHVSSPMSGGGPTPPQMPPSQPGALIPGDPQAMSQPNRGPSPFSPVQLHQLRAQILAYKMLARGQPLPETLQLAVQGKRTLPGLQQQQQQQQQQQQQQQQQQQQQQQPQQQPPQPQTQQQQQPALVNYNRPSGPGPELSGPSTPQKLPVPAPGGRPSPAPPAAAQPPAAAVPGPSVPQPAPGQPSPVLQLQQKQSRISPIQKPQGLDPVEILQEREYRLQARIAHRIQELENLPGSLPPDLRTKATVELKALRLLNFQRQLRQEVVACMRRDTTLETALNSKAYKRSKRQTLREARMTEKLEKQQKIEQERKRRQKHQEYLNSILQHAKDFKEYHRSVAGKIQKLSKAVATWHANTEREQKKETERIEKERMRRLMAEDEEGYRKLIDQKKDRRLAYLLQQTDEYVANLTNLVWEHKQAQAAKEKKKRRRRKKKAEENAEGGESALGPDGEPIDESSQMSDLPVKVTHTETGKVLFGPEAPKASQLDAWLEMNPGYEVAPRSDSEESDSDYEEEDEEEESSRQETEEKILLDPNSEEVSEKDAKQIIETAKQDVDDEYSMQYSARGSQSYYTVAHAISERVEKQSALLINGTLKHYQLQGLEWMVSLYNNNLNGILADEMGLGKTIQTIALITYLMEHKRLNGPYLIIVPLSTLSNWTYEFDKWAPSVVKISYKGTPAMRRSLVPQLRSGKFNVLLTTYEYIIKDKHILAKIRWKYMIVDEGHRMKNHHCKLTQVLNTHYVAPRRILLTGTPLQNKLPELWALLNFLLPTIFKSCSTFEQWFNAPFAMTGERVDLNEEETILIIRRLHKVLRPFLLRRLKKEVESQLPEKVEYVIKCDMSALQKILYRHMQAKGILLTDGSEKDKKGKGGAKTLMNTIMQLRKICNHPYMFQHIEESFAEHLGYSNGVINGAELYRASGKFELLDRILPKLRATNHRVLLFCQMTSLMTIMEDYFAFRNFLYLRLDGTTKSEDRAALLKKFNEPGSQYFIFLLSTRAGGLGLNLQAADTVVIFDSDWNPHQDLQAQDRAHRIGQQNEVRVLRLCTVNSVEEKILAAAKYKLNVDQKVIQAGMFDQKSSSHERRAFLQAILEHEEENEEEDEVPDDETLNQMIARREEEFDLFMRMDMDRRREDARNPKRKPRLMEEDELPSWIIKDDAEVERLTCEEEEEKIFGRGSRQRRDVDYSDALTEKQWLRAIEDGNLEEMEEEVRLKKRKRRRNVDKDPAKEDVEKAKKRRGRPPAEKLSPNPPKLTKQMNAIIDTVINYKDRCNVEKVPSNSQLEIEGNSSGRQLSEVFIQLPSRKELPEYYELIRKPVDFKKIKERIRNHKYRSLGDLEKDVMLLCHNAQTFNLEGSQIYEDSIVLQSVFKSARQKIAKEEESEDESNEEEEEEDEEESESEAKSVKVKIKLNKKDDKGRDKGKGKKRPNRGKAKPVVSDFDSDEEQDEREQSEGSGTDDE
SMARCA4, sequence (P51532 whole entry): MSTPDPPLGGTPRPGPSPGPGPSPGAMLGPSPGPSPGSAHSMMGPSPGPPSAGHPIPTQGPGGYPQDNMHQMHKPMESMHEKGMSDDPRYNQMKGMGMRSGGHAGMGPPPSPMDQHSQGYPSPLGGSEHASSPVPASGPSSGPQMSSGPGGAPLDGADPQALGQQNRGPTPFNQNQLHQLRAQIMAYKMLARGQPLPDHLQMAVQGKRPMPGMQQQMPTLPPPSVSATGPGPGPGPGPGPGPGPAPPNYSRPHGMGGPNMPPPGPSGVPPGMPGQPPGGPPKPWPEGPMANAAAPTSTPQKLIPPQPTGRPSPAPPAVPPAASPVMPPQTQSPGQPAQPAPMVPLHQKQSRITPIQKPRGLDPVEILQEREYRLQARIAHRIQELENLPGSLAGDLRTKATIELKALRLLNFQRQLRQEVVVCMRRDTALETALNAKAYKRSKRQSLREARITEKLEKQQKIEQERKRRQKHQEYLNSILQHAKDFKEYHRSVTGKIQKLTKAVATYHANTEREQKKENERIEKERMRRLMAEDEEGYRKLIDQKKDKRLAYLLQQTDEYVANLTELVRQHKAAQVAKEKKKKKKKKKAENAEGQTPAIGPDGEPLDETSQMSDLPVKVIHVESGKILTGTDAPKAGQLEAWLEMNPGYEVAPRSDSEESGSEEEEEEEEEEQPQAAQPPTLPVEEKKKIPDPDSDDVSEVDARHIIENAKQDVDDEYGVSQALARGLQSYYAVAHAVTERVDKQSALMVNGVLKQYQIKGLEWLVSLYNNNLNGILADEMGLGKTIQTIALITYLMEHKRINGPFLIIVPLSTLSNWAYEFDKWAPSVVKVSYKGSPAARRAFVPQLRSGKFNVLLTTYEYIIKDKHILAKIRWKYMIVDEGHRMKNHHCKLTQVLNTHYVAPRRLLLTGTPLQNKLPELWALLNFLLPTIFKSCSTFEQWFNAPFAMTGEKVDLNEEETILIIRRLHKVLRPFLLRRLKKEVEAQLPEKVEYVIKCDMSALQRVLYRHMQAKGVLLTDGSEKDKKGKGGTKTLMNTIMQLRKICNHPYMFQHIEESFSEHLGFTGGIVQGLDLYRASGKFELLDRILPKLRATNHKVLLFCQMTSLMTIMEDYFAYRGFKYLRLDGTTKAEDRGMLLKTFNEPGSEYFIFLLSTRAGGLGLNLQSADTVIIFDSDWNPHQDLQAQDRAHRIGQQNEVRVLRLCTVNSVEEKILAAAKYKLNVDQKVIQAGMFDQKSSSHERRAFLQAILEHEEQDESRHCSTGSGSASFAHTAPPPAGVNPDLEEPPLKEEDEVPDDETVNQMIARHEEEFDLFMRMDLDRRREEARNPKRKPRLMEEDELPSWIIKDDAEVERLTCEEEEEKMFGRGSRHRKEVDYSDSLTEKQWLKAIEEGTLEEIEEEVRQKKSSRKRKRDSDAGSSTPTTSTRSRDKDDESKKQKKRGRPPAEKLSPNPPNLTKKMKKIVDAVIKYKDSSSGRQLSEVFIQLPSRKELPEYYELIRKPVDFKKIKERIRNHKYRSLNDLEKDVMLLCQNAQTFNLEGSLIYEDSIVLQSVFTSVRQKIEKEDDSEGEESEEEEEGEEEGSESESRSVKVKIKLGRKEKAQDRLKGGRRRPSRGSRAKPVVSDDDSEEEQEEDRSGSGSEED
T2 sequence (P51531 with tags, fused parts or gaps isoform P51531-2): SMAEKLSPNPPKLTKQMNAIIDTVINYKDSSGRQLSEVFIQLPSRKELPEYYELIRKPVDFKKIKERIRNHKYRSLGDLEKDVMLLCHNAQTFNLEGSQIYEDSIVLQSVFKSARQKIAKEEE

On to `Cc1ncsc1-c1ccc(C(CCC(C)CCN2CCC(c3ccc4c(c3)n(C3CCCC3)c3nc(=O)c5c(Br)cccc5n43)CC2)NC(=O)C2CC(O)CN2C(=O)C(NC(=O)C2(F)CC2)C(C)(C)C)cc1` (stereo not drawn) [ACBI2], for which the EC50 in series [1] (PBRM1 EC50, binary, PROTAC alone) is 59.3 nM and 67.2 nM and 77.7 nM; in series [1] (Ternary PBRM1 BD EC50 (PROTAC + VCB), PROTAC + VCB) it was 3.83 nM and 5.7 nM and 5.49 nM; in series [2] (setting [6]), 172 ± 109 nM; in series [2] (setting [7]), 94.6 nM and 127 nM and 166 nM and 204 nM and 373 nM; in series [5] (Homo sapiens, NCI-H1568, assay not given, read-out: EC50) it was 7 nM; in series [5] (Homo sapiens, NCI-H1568, read-out: LogEC50 (viability) (converted)), 7.43 nM. Also, the EC50 in series [5] (Homo sapiens, NCI-H1568, values derived from curves in Extended Fig 4b, read-out: EC50 mean) came to 7.43 nM. For the same compound, the DC50 in series [3] (setting [8]) is 3.55 nM and 1.63 nM and 1.77 nM and 3.45 nM and 4.01 nM and 4.03 nM and 3.11 nM; in series [3] (setting [9]), 2 nM and 2.28 nM and 1.37 nM and 1.63 nM and 1.15 nM and 1.22 nM and 1.53 nM and 0.997 nM and 1.43 nM and 0.892 nM; in series [4] (RKO (4 h), mean ± SD), over 25000 nM; in series [4] (RKO cells, time not stated at the place (Supplementary Data 2)), 32 nM. This compound had a Dmax in series [4] (RKO, RKO (18 h), mean ± SD) of 67 ± 8%. Moreover, the “Bottom (% protein remaining, four-parameter fit)” value in series [4] (RKO, SM4) turned out to be 39.28%. The “Top (% protein remaining, four-parameter fit)” value in series [4] (RKO, SM4) is on record as 143.4%. Moreover, the “% protein remaining” value in series [4] (RKO, SM4, conc 9.54e-12 mol/l) was 113.734% and 126.165%; in series [4] (RKO, SM4, conc 3.81e-11 mol/l), 121.614% and 148.911%; in series [4] (RKO, SM4, conc 1.53e-10 mol/l), 135.787% and 142.842%; in series [4] (RKO, SM4, conc 6.1e-10 mol/l), 143.182% and 145.479%; in series [4] (RKO, SM4, conc 2.44e-9 mol/l) it was 149.21% and 160.401%; in series [4] (RKO, SM4, conc 9.77e-9 mol/l) it was 171.8% and 162.178%. For the same compound, the “% protein remaining” value is 85.9345% and 100.013% in series [4] (RKO, SM4, conc 3.91e-8 mol/l); 33.2702% and 37.8218% in series [4] (RKO, SM4, conc 1.56e-7 mol/l); 30.6123% and 41.0571% in series [4] (RKO, SM4, conc 6.25e-7 mol/l); 28.0108% in series [4] (RKO, SM4, conc 2.5e-6 mol/l); 64.9119% in series [4] (RKO, SM4, conc 1e-5 mol/l). For the same compound, in series [5] (NCI-H1568), the “Bottom (% Viability, four-parameter fit)” value is given as 1.886%. Also, the “HillSlope (viability)” value in series [5] (NCI-H1568) is -1.08. Also, the “Top (% Viability, four-parameter fit)” value in series [5] (NCI-H1568) is recorded as 95.68%. In series [5] (NCI-H1568, (18h)), the IC50 is 6.58 nM and 10.7 nM and 3.99 nM and 10.8 nM and 11.1 nM and 3.71 nM. The “% Viability” value in series [5] (NCI-H1568, log10 conc -5 mol/l) is -0.296% and -0.02611% and -0.1217% and 0.4768% and -0.2501%; in series [5] (NCI-H1568, log10 conc -5.30103 mol/l), -0.06113% and -0.2267%; in series [5] (NCI-H1568, log10 conc -5.50031 mol/l), 0.1326% and 0.2417% and 0.02451% and 0.1536% and 0.8908%; in series [5] (NCI-H1568, log10 conc -5.90309 mol/l), 0.4837%; in series [5] (NCI-H1568, log10 conc -6.50446 mol/l) it was 2.441% and 0.7903%; in series [5] (NCI-H1568, log10 conc -7.10735 mol/l), 8.308% and 6.732%. Further, the “% Viability” value in series [5] (NCI-H1568, log10 conc -8.31158 mol/l) was 56.5669% and 89.3041%; in series [5] (NCI-H1568, log10 conc -8.91364 mol/l) it was 76.9492% and 107.085%; in series [5] (NCI-H1568, log10 conc -9.5157 mol/l), 76.1437% and 99.3609%; in series [5] (NCI-H1568, log10 conc -10 mol/l), 102.65% and 94.5594% and 117.406% and 60.7547% and 106.867%; in series [5] (NCI-H1568, log10 conc -10.1175 mol/l) it was 83.2326% and 93.6592%; in series [5] (NCI-H1568, log10 conc -10.5003 mol/l), 109.307% and 95.7558% and 110.528% and 76.6212%.

`O=c1nc2n(C3CCCC3)c3ccccc3n2c2cccc(Br)c12` [compound 1]: the EC50 in series [1] (setting [10]) is 129 nM and 124 nM and 140 nM; in series [1] (setting [11]) it was 124 nM and 116 nM and 167 nM; in series [2] (setting [6]) it was 425 ± 11 nM; in series [2] (setting [7]) it was 413 nM and 429 nM and 435 nM; in series [5] (setting [12]) it was 1100 nM. In addition, the DC50 in series [3] (setting [8]) is over 25000 nM; in series [3] (setting [9]), over 25000 nM; in series [4] (RKO (4 h), mean ± SD) it was over 25000 nM; in series [4] (RKO (18 h), mean ± SD), over 25000 nM.

Regarding `Nc1cccc2c1c(=O)nc1n(C3CCCC3)c3ccccc3n21` [compound 2], the EC50 in series [1] (setting [10]) was 934 nM and 1020 nM and 925 nM; in series [1] (setting [11]), 1080 nM and 1000 nM and 929 nM; in series [2] (setting [6]), 1770 nM; in series [2] (setting [7]), 1620 nM and 1970 nM and 1530 nM and 2040 nM; in series [5] (setting [12]) it was over 10000 nM. For the same compound, the DC50 in series [3] (setting [8]) is over 25000 nM; in series [3] (setting [9]), over 25000 nM; in series [4] (RKO (4 h), mean ± SD), over 25000 nM; in series [4] (RKO (18 h), mean ± SD) it was over 25000 nM. Also, the IC50 in series [5] (Homo sapiens, NCI-H1568, 18 h) was over 10000 nM.

Source of the values: publication PMC9551036, “A selective and orally bioavailable VHL-recruiting PROTAC achieves SMARCA2 degradation in vivo” (Nature Communications, 2022).
